{"source": "patent US20110098284A1", "about": "“Methods and compositions for treating pain” (priority 2005, published 2011)", "key": {"[1]": {"details": "stored for 12 weeks at 5° C., 25° C./60% RH, 30° C./60% RH, 40° C./75% RH; for original NSAID content on storage: stability indicating HPLC; for visible signs of crystallization, deviation in pH and osmolarity on storage: vials or ampoules sealed under nitrogen"}, "[2]": {"system": "marginal vein of each ear", "test": "Histopathological evaluation of injection sites (Example 11)", "type": "in vivo, New Zealand White rabbits", "protocol": "Injection sites underwent histopathological evaluation.\nThrombosis was recorded for amorphous aggregates of fibrin like material within vascular lumens and variably adherent to vessel walls."}, "[3]": {"details": "vs. 0% placebo; P=0.03; cited from earlier work"}, "[4]": {"details": "CABG study, cited from earlier work"}, "[5]": {"details": "cited from earlier work; for incidence of injection site pain: diclofenac 75 mg or ketorolac 30 mg IM (Morrow)"}, "[6]": {"system": "marginal vein of each ear", "details": "for edema at injection site / erythema at injection site: 24 hour observation"}, "[7]": {"details": "cited from earlier work"}, "[8]": {"details": "Treatment A, 5 mg/0.1 mL IV over one minute"}, "[9]": {"details": "Treatment B, 15 mg/0.3 mL IV over one minute"}, "[10]": {"details": "1 mg/kg over 10 min as solution of 25 mg/mL (Campbell and Watters)"}, "[11]": {"details": "IV using a diluted infusion (Campbell and Watters)"}}, "note": "Where two headings read alike, the source gives them in different places.", "data": [{"smiles": "CN1C(C(=O)Nc2ccccn2)=C(O)c2sccc2S1(=O)=O.CN1C(C(=O)Nc2ccccn2)=C(O)c2sccc2S1(=O)=O.NCCN", "note": "[tenoxicam ethylenediamine]", "values": [{"measurement": "original NSAID content on storage", "setting": "[1]", "value": "100%±5%"}, {"measurement": "visible signs of crystallization, deviation in pH and osmolarity on storage", "setting": "[1]", "value": "no visible signs of crystallization or significant deviation in pH and osmolarity"}]}, {"smiles": "CN1C(C(=O)Nc2ccccn2)=C(O)c2ccccc2S1(=O)=O", "note": "[unsalified piroxicam, 4-hydroxy-2-methyl-N-2-pyridinyl-2H-1,2-benzothiazine-3-carboxamide-1,1-dioxide]", "values": [{"measurement": "incidence of inflammatory cell infiltrates", "setting": "[2]; at the end of needle progression and 1 cm away from the end of progression", "value": "intermediate"}, {"measurement": "mean intensity (severity) of edema and infiltrates", "setting": "[2]; injection site histopathology", "value": "intermediate"}]}, {"smiles": "CCC(=O)NS(=O)(=O)c1ccc(-c2c(-c3ccccc3)noc2C)cc1", "note": "[parecoxib]", "values": [{"measurement": "sternal wound infections", "setting": "[3]", "value": 3.2, "unit": "%"}, {"measurement": "deaths", "setting": "[4]; vs. 0 placebo", "value": 4}, {"measurement": "cerebrovascular events", "setting": "[4]; vs. 0.7% placebo", "value": 2.6, "unit": "%"}, {"measurement": "incidence of myocardial infarctions", "setting": "[4]; vs. 0.7% placebo", "value": 1.9, "unit": "%"}]}, {"smiles": "O=C(c1ccccc1)c1ccc2n1CCC2C(=O)O", "note": "(stereo not drawn) [ketorolac]", "values": [{"measurement": "incidence of injection site pain", "setting": "[5]", "value": 3, "unit": "%"}]}, {"smiles": "CC(C(=O)O)c1cccc(C(=O)c2ccccc2)c1", "note": "(racemic) [Ketoprofen, (±)-2-(3-benzoylphenyl)propionic acid]", "values": [{"measurement": "irritation in the ear veins", "setting": "[6]; Treatment A, 5 mg/0.1 mL IV", "value": "produced irritation"}, {"measurement": "edema at injection site", "setting": "[6]; [8]", "value": "slight"}, {"measurement": "erythema at injection site", "setting": "[6]; [8]", "value": "well defined"}, {"measurement": "irritation in the ear veins", "setting": "[6]; Treatment B, 15 mg/0.3 mL IV", "value": "produced irritation"}, {"measurement": "edema at injection site", "setting": "[6]; [9]", "value": "very slight"}, {"measurement": "erythema at injection site", "setting": "[6]; [9]", "value": "very slight to moderate to severe"}]}, {"smiles": "O=C(O)Cc1ccccc1Nc1c(Cl)cccc1Cl", "note": "[diclofenac, 2-(2,6-dichlorophenylamino)benzeneacetic acid]", "values": [{"measurement": "cases of severe local reactions", "setting": "[5]; IM (Pillans and O'Connor)", "value": "six"}, {"measurement": "patients who died", "setting": "[5]; IM (Pillans and O'Connor)", "value": "Two of the six"}, {"measurement": "patients with extensive tissue necrosis at the IM injection site", "setting": "[5]; IM (Pillans and O'Connor)", "value": "Three"}, {"measurement": "patients with necrotizing fasciitis", "setting": "[5]; IM (Pillans and O'Connor)", "value": "three"}, {"measurement": "share of all accepted claims for injection related complications", "setting": "[5]; IM administration, New Zealand 1992 to 2003", "value": 22.6, "unit": "%"}, {"measurement": "incidence of injection site pain", "setting": "[5]", "value": 31, "unit": "%"}, {"measurement": "patients who developed phlebitis", "setting": "[7]; 1 mg/kg in 100 mL saline every 12 hours x 2 doses, maxillofacial surgery (Tarkkila)", "value": 10, "unit": "%"}, {"measurement": "incidence of phlebitis, arm", "setting": "[7]; [10]", "value": 58, "unit": "%"}, {"measurement": "incidence of phlebitis, hand", "setting": "[7]; [10]", "value": 85, "unit": "%"}, {"measurement": "incidence of thrombosis, arm veins", "setting": "[7]; [11]", "value": 8, "unit": "%"}, {"measurement": "incidence of thrombosis, hand veins", "setting": "[7]; [11]", "value": 38, "unit": "%"}, {"measurement": "patients who developed phlebitis", "setting": "[7]; after hip replacement surgery, diclofenac 75 mg IV over 30 minutes then 75 mg/15.5 hours, ketoprofen 100 mg over 30 min then 100 mg/15.5 hours (Kostamovaara)", "value": 14, "unit": "%"}, {"measurement": "patients who experienced phlebitis", "setting": "[7]; after major orthopedic surgery, 0.35 mg/kg IV then 0.90 mcg/min continuous infusion, 6 hours after start (Claeys)", "value": 5, "unit": "%"}, {"measurement": "time of (delayed) venous thrombosis", "setting": "[7]; diluted in 100 to 200 mL, infused over 15 to 20 minutes (Gopinath)", "value": "> 72", "unit": "h"}]}, {"smiles": "CN1C(C(=O)Nc2ccccn2)=C(O)c2ccccc2S1(=O)=O.NCCN", "note": "[piroxicam-ethylenediamine]", "values": [{"measurement": "incidence of inflammatory cell infiltrates", "setting": "[2]; rabbit, in vivo", "value": "low"}, {"measurement": "mean intensity (severity) of edema and infiltrates", "setting": "[2]; rabbit, in vivo", "value": "none to negligible"}, {"measurement": "original NSAID content on storage", "setting": "[1]", "value": "100%±5%"}, {"measurement": "visible signs of crystallization, deviation in pH and osmolarity on storage", "setting": "[1]", "value": "no visible signs of crystallization or significant deviation in pH and osmolarity"}]}]}
